What is called IC50 is the concentration that inhibits the measured activity by half.

The target in assay [1] is T1, Mcl-1 protein (residues 171-323) (Homo sapiens, UniProt Q07820).
T1 construct: Tag-free Mcl-1 protein (residues 171-323) was used in the FP assay
As to the kind of experiment: Inhibition of Mcl-1 by fluorescence polarization (FP) competitive binding assay with FAM-Bid tracer. Particulars: 2 nM FAM-Bid, 20 nM Mcl-1, 30 min. The procedure, abridged: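 Tag-free Mcl-1 (20 nM) with 2 nM FAM-Bid peptide in PBS, 0.01% BGG, 0.01% Triton X-100, 5% DMSO, 30 min at room temperature. FP read at Ex 485/Em 528 nm. IC50 from 10-point curves normalised to DMSO and no-protein controls.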

For another assay, the system named is NCI-H929 cells. Briefly: Cell viability assay (NCI-H929 cells), CCK-8. Format: cell-based. Conditions: 5% FBS. The essentials: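 NCI-H929 cells from ATCC were seeded at 20000 cells/well in 95 μL of culture medium in 96-well plates and grown for 4 hrs. Compounds, serially diluted in DMSO and further diluted in medium, were added as 5 μL, and cells were incubated for 24 hrs at 37° C. with 5% CO2. Viability was measured with CCK-8.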

Another assay relates to OPM-2 cells. Briefly: Cell viability assay (OPM-2 cells), CCK-8. Conditions: 5% FBS. It is filed as cell-based. The procedure, abridged: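 OPM-2 myeloma cells (20000/well) exposed to serially diluted compound for 24 h at 37 °C, 5% CO2, then incubated 4 h with CCK-8 and read at 450 nm. Readings normalized to vehicle; IC50 from nonlinear regression.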

T1 sequence (Q07820 171-323): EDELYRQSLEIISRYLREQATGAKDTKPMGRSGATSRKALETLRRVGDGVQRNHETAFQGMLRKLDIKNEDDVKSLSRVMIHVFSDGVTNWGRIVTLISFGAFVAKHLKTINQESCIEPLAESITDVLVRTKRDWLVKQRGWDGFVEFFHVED

For `CO[C@@]1(CN2CCOCC2)C2=C[C@@H](C2)[C@H](C)[C@@H](C)S(=O)(=O)NC(=O)c2ccc3c(c2)N(C[C@@H]2CC[C@H]21)C[C@@]1(CCCc2c1ccc(Cl)c2F)CO3` [compound 33, (1S,11′R,12′S,13′R,16′R,16a′R,18a′R,E)-6-chloro-5-fluoro-16′-methoxy-11′,12′-dimethyl-16′-(morpholinomethyl)-3,4,12′,13′,16′,16a′,17′,18′,18a′,19′-decahydro-1′H,2H,3′H,11′H-spiro[naphthalene-1,2′-[5,7]etheno[13,15]methanocyclobuta[i][1,4]oxazepino[3,4-f][1]thia[2,7]diazacyclohexadecin]-8′(9′H)-one 10′,10′-dioxide], the IC50 in assay [1] is 13 nM; with NCI-H929 cells (Homo sapiens, NCI-H929, 24 h) it was 36 nM; in the assay with OPM-2 cells (Homo sapiens, OPM-2, 24 h), 52 nM.
For `CO[C@H]1C2=C[C@@H](C2)[C@H](C)[C@@H](C)S(=O)(=O)NC(=O)c2ccc3c(c2)N(C[C@@H]2CC[C@H]21)C[C@@]1(CCCc2c1cc(F)c(Cl)c2F)CO3` [compound 25], the IC50 is 420 nM in assay [1]; 3400 nM in the assay on NCI-H929 cells (Homo sapiens, NCI-H929, 24 h); 2500 nM in the assay with OPM-2 cells (Homo sapiens, OPM-2, 24 h).
Regarding `CO[C@@H]1C2=CC(C2)C(C)(C)CS(=O)(=O)NC(=O)c2ccc3c(c2)N(C[C@@H]2CC[C@H]21)C[C@@]1(CCCc2cc(Cl)ccc21)CO3` (single isomer, unassigned) [Cpd. No. 6 (Isomer 1)], the IC50 came to 5.2 nM in assay [1], 870 nM in the assay with NCI-H929 cells (24 h) and 1300 nM in the assay on OPM-2 cells (24 h).
With `C[C@@H]1[C@@H](C)S(=O)(=O)NC(=O)c2ccc3c(c2)N(C[C@@H]2CC[C@H]2[C@@H](OCCN(C)S(C)(=O)=O)C2=C[C@H]1C2)C[C@@]1(CCCc2c1ccc(Cl)c2F)CO3` [compound 79, N-(2-(((1S,11′R,12′S,13′R,16′R,16a′R,18a′R,E)-6-chloro-5-fluoro-11′,12′-dimethyl-10′,10′-dioxido-8′-oxo-3,4,8′,9′,12′,13′,16′,16a′,17′,18′,18a′,19′-dodecahydro-1′H,2H,3′H, 11′H-spiro[naphthalene-1,2′-[5,7]etheno[13,15]methanocyclobuta[i][1,4]oxazepino[3,4-f][1]thia[2,7]diazacyclohexadecin]-16′-yl)oxy)ethyl)-N-methylmethanesulfonamide], the concentration for half-maximal inhibition (IC50) in assay [1] amounted to 15 nM; in the assay with NCI-H929 cells (Homo sapiens, NCI-H929, 24 h), 58 nM; in the assay with OPM-2 cells (Homo sapiens, OPM-2, 24 h) it was 53 nM.
`C[C@@H]1[C@@H](C)S(=O)(=O)NC(=O)c2ccc3c(c2)N(C[C@@H]2CC[C@H]2[C@@H](OCc2ncccn2)C2=C[C@H]1C2)C[C@@]1(CCCc2c1ccc(Cl)c2F)CO3` [compound 62, (1S,11′R,12′S,13′R,16′R,16a′R,18a′R,E)-6-chloro-5-fluoro-11′,12′-dimethyl-16′-(pyrimidin-2-ylmethoxy)-3,4,12′,13′,16′,16a′,17′,18′,18a′,19′-decahydro-1′H,2H,3′H,11′H-spiro[naphthalene-1,2′-[5,7]etheno[13,15]methanocyclobuta[i][1,4]oxazepino[3,4-f][1]thia[2,7]diazacyclohexadecin]-8′(9′H)-one 10′,10′-dioxide]: the half-inhibitory concentration (IC50) in assay [1] came to 8.1 nM; with NCI-H929 cells (Homo sapiens, NCI-H929, 24 h) it was 9.3 nM; in the assay on OPM-2 cells (Homo sapiens, OPM-2, 24 h), 59 nM.
On to `CCOC(=O)CO[C@H]1C2=C[C@@H](C2)[C@H](C)[C@@H](C)S(=O)(=O)NC(=O)c2ccc3c(c2)N(C[C@@H]2CC[C@H]21)C[C@@]1(CCCc2c1ccc(Cl)c2F)CO3` [compound 72, ethyl 2-(((1S,11′R,12′S,13′R,16′R,16a′R,18a′R,E)-6-chloro-5-fluoro-11′,12′-dimethyl-10′,10′-dioxido-8′-oxo-3,4,8′,9′,12′,13′,16′,16a′,17′,18′,18a′,19′-dodecahydro-1′H,2H,3′H,11′H-spiro[naphthalene-1,2′-[5,7]etheno[13,15]methanocyclobuta[i][1,4]oxazepino[3,4-f][1]thia[2,7]diazacyclohexadecin]-16′-yl)oxy)acetate], for which the IC50 in assay [1] came out at 14 nM; in the assay with NCI-H929 cells (Homo sapiens, NCI-H929, 24 h) it was 70 nM; in the assay with OPM-2 cells (Homo sapiens, OPM-2, 24 h) it was 89 nM.
`CO[C@@H]1C2=CC(C2)CC(C)S(=O)(=O)NC(=O)c2ccc3c(c2)N(C[C@@H]2CC[C@H]21)C[C@@]1(CCCc2cc(Cl)ccc21)CO3` (single isomer, unassigned) [7 (Isomer 2)]: the IC50 came out at 4.2 nM in assay [1], 1900 nM in the assay with NCI-H929 cells (24 h) and 2960 nM in the assay with OPM-2 cells (24 h).
With `CO[C@@]1(CN2CCC(N3CCOCC3)CC2)C2=C[C@@H](C2)[C@H](C)[C@@H](C)S(=O)(=O)NC(=O)c2ccc3c(c2)N(C[C@@H]2CC[C@H]21)C[C@@]1(CCCc2c1ccc(Cl)c2F)CO3` [compound 37, (1S,11′R,12′S,13′R,16′R,16a′R,18a′R,E)-6-chloro-5-fluoro-16′-methoxy-11′,12′-dimethyl-16′-((4-morpholinopiperidin-1-yl)methyl)-3,4,12′,13′,16′,16a′,17′,18′,18a′,19′-decahydro-1′H,2H,3′H, 11′H-spiro[naphthalene-1,2′-[5,7]etheno[13,15]methanocyclobuta[i][1,4]oxazepino[3,4-f][1]thia[2,7]diazacyclohexadecin]-8′(9′H)-one 10′,10′-dioxide], the IC50 was 17 nM in assay [1]; 12 nM with NCI-H929 cells (Homo sapiens, NCI-H929, 24 h); 63 nM in the assay with OPM-2 cells (Homo sapiens, OPM-2, 24 h).
On to `CO[C@@]1(CN2CCC(N3CCOCC3)CC2)C2=C[C@@H](C2)[C@H](C)[C@@H](C)S(=O)(=O)NC(=O)c2ccc3c(n2)N(C[C@@H]2CC[C@H]21)C[C@@]1(CCCc2c1ccc(Cl)c2F)CO3` [compound 93, (1S,11′R,12′S,13′R,16′R,16a′R,18a′R)-6-chloro-5-fluoro-16′-methoxy-11′,12′-dimethyl-16′-((4-morpholinopiperidin-1-yl)methyl)-3,4,12′,13′,16′,16a′,17′,18′,18a′,19′-decahydro-1′H,2H,3′H,11′H-spiro[naphthalene-1,2′-[5,7]etheno[13,15]methanocyclobuta[i][1,4]oxazepino[3,4-f][1]thia[2,5,7]triazacyclohexadecin]-8′(9′H)-one 10′,10′-dioxide], for which the IC50 in assay [1] worked out at 19 nM; in the assay with NCI-H929 cells (Homo sapiens, NCI-H929, 24 h), 11 nM; with OPM-2 cells (Homo sapiens, OPM-2, 24 h) it was 71 nM.
Regarding `CC[C@@H]1CS(=O)(=O)NC(=O)c2ccc3c(c2)N(C[C@@H]2CC[C@H]2[C@@H](OC)C2=CC1C2)C[C@@]1(CCCc2cc(Cl)ccc21)CO3` (single isomer, unassigned) [Cpd. No. 10 (Isomer 2)], the IC50 was 4.9 nM in assay [1], 780 nM in the assay with NCI-H929 cells (24 h) and 1130 nM in the assay with OPM-2 cells (24 h).
As to `CO[C@@H]1C2=CC(C2)CC(C)S(=O)(=O)NC(=O)c2ccc3c(c2)N(C[C@@H]2CC[C@H]21)C[C@@]1(CCCc2cc(Cl)ccc21)CO3` (single isomer, unassigned) [7 (Isomer 1)], the IC50 in assay [1] was found to be 4.2 nM; in the assay on NCI-H929 cells (24 h) it was 600 nM; with OPM-2 cells (24 h), 1120 nM.
Regarding `C[C@@H]1[C@@H](C)S(=O)(=O)NC(=O)c2ccc3c(c2)N(C[C@@H]2CC[C@H]2[C@@H](OCCN2CCN(C4CCOCC4)CC2)C2=C[C@H]1C2)C[C@@]1(CCCc2c1ccc(Cl)c2F)CO3` [compound 89, (1S,11′R,12′S,13′R,16′R,16a′R,18a′R)-6-chloro-5-fluoro-11′,12′-dimethyl-16′-(2-(4-(tetrahydro-2H-pyran-4-yl)piperazin-1-yl)ethoxy)-3,4,12′,13′,16′,16a′,17′,18′,18a′,19′-decahydro-1′H,2H,3′H, 11′H-spiro[naphthalene-1,2′-[5,7]etheno[13,15]methanocyclobuta[i][1,4]oxazepino[3,4-f][1]thia[2,7]diazacyclohexadecin]-8′(9′H)-one 10′,10′-dioxide], the IC50 was found to be 11 nM in assay [1]; 7.5 nM in the assay on NCI-H929 cells (Homo sapiens, NCI-H929, 24 h); 53 nM in the assay with OPM-2 cells (Homo sapiens, OPM-2, 24 h).
Taken in the same sequence, the figures for `CO[C@@]1(CN2CCN3CCCC[C@H]3C2)C2=C[C@@H](C2)[C@H](C)[C@@H](C)S(=O)(=O)NC(=O)c2ccc3c(c2)N(C[C@@H]2CC[C@H]21)C[C@@]1(CCCc2c1ccc(Cl)c2F)CO3` [compound 32, (1S,11′R,12′S,13′R,16′R,16a′R,18a′R,E)-6-chloro-5-fluoro-16′-methoxy-11′,12′-dimethyl-16′-(((S)-octahydro-2H-pyrido[1,2-a]pyrazin-2-yl)methyl)-3,4,12′,13′,16′,16a′,17′,18′,18a′,19′-decahydro-1′H,2H,3′H,11′H-spiro[naphthalene-1,2′-[5,7]etheno[13,15]methanocyclobuta[i][1,4]oxazepino[3,4-f][1]thia[2,7]diazacyclohexadecin]-8′(9′H)-one 10′,10′-dioxide] were 13 nM, 10 nM and 29 nM.
Taken in the same sequence, the figures for `CC(=O)N1CCN(CCO[C@H]2C3=C[C@@H](C3)[C@H](C)[C@@H](C)S(=O)(=O)NC(=O)c3ccc4c(c3)N(C[C@@H]3CC[C@H]32)C[C@@]2(CCCc3c2ccc(Cl)c3F)CO4)CC1` [compound 87, (1S,11′R,12′S,13′R,16′R,16a′R,18a′R,E)-16′-(2-(4-acetylpiperazin-1-yl)ethoxy)-6-chloro-5-fluoro-11′,12′-dimethyl-3,4,12′,13′,16′,16a′,17′,18′,18a′,19′-decahydro-1′H,2H,3′H, 11′H-spiro[naphthalene-1,2′-[5,7]etheno[13,15]methanocyclobuta[i][1,4]oxazepino[3,4-f][1]thia[2,7]diazacyclohexadecin]-8′(9′H)-one 10′,10′-dioxide] were 8.5 nM, 27 nM and 369 nM.

The values above are taken from US11498928B2, “Macrocyclic spiroethers as Mcl-1 inhibitors” (ASCENTAGE PHARMA (SUZHOU) CO., LTD., priority 2019, dated 2022).
